# According to US12643867B2, “Compositions and uses thereof” (University of Virginia Patent Foundation, priority 2017, dated 2026):
# Like-named read-outs stand apart in the source and are kept apart here.
# Target: T1, recombinant DGKα (Rattus norvegicus, UniProt P51556)
# T1 construct: expressed in transfected cells; host or cells: HEK293T (SILAC HEK293T for LC-MS)
# Test: Gel-based ATP acyl phosphate chemical proteomic assay
# Format: binding
# Details: for blockade of DGKα ATP probe labeling: compounds 100 μM (ATP 1 mM; RF001 at indicated concentrations), probe 10 μM
# Protocol: Cell pellets were resuspended in kinase buffer (Dulbecco's PBS (DPBS, Hyclone), 20 mM MgCl2, EDTA-free protease inhibitors (Pierce)) and then lysed by sonication (3×1 sec pulse, 20% amplitude). The cell lysates were then subjected to centrifugation (100,000×g, 45 min at 4° C.) to isolate the cytosolic fraction in the supernatant and the membrane fraction as a pellet. The membrane pellet was resuspended in kinase buffer by sonication. […] The only exception was experiments involving DGKE; recombinant DGKE protein was most prominently expressed in the membrane fraction and so this fraction was utilized to study DGKE enzyme (see FIG. 8). Protein concentrations were measured using the Bio-Rad DC protein assay. Samples were stored at −80° C. until use.
# Proteome concentration was adjusted to 2 mg/mL in kinase buffer. Proteomes were first pre-treated with compound (0.6 μL, 50× stock in DMSO) mixed with gentle flicking, and incubated for 30 min at 25° C. in a microfuge tube (30 μL reaction volume). […] Reactions were then quenched with 10 AL of 4×SDS-PAGE loading buffer. Protein samples (15 μL) were loaded onto 4-20% TGX Stain-Free Protein Midi Gel and resolved by SDS-PAGE at 150V for 55 min. Proteins were then transferred to a nitrocellulose blot by Bio-Rad Trans-Blot Turbo Transfer System (25V. 10 min) to enhance sensitivity. The nitrocellulose blot was then incubated in blocking solution (30 mL, 3% BSA in TBS-T) for 1 h at 25° C. with gentle shaking. The blot was then transferred immediately to antibody solution (30 mL, 5% BSA in ddH2O with 0.1% Tween20 and 1:3000 Streptavidin DyLight 550) and incubated for 2 h at 25° C. with gentle shaking. The blot was then rinsed 5 times for 5 min in TBS-T. and then transferred into ddH2O. The blot was then imaged by in-blot fluorescence scanning on a ChemiDoc MP Imaging System. Fluorescence intensity signals were normalized to total lane protein using the Bio-rad Stain Free imaging (Posch et al., 2013).
# The percentage of enzyme activity remaining was determined by comparing integrated band intensities or luminescence of inhibitor—with DMSO-treated samples for gel-based chemical proteomic or ADP-glo assays, respectively. For both chemical proteomic and ADP-glo methods, nonlinear regression analysis was used to determine the IC50 values from a dose-response curve generated using GraphPad Prism. Data are shown as mean±s.e.m. Determination of significance was performed by one-way ANOVA. All statistical analyses were performed using GraphPad Prism.
# T1 sequence (P51556 whole entry): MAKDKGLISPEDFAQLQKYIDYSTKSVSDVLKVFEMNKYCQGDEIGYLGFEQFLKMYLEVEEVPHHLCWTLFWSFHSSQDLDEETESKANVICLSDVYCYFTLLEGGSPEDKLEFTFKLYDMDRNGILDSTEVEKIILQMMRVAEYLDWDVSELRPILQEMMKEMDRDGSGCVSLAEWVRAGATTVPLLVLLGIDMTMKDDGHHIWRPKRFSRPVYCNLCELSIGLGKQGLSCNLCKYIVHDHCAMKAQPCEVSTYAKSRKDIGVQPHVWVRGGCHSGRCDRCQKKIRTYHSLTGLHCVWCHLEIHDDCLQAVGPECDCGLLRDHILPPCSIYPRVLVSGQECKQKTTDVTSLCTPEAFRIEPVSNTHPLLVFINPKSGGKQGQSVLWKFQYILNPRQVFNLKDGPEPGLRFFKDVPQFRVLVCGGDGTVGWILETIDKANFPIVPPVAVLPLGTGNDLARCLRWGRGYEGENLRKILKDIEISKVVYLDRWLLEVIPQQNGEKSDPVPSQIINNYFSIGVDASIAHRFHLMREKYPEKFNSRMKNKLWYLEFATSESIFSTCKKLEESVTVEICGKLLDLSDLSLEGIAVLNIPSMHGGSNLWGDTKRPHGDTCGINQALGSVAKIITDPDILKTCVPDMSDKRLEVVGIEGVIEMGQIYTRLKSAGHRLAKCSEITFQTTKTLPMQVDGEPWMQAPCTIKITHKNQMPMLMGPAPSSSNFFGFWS
compound,measurement,setting,value
O=C(c1ccc(F)cc1)C1CCN(CCn2c(=O)[nH]c3ccccc3c2=O)CC1 [Ketanserin],blockade of DGKα ATP probe labeling,30 min,not ketanserin
Cc1nc2sccn2c(=O)c1CCN1CCC(=C(c2ccc(F)cc2)c2ccc(F)cc2)CC1 [Ritanserin],IC50,"IC50, blockade of ATP probe labeling of DGKα (gel-based), 10 μM ATP probe, 30 min",57 µM
same,blockade of DGKα ATP probe labeling,30 min,blocked probe labeling
same,IC50,"read-out: 95% confidence intervals for IC50 values, gel-based assay",17 to 192 µM
"Fc1ccc(C(=C2CCNCC2)c2ccc(F)cc2)cc1 [RF001, 4-(Bis(4-fluorophenyl)methylene) piperidine]",inhibition at 1000 µM,"1 mM, read-out: inhibition of DGKα activity in the probe-binding assay",> 80%
same,blockade of DGKα ATP probe labeling,30 min,blocked probe labeling in a concentration-dependent manner
